Data as given in publication PMC8160813, “Design, Synthesis, and Evaluation of Dihydropyranopyrazole Derivatives as Novel PDE2 Inhibitors for the Treatment of Alzheimer’s Disease” (Molecules, 2021).

Experiments:
Format in all cases: biochemical
[1] = target: T1, PDE2A (catalytic domain, 580–919) (Homo sapiens, UniProt O00408); assay: In vitro PDE2 enzymatic inhibition assay (3H-cGMP substrate); conditions: for inhibition at 0.1 µM / inhibition at 0.5 µM: PDE2; for inhibition at 0.1 µM: compound at 0.1 μM, read-out: Inhibition Ratio (%) 0.1 μM; for inhibition at 0.5 µM: compound at 0.5 μM, read-out: Inhibition Ratio (%) 0.5 μM; for IC50: means ± SD of three experiments, 3H-cGMP, 25 °C, 15 min, read-out: IC50 (nM) against PDE2
T1 construct: made in house; host or cells: E. coli BL21 (CodonPlus)
T1 sequence (O00408 580-919): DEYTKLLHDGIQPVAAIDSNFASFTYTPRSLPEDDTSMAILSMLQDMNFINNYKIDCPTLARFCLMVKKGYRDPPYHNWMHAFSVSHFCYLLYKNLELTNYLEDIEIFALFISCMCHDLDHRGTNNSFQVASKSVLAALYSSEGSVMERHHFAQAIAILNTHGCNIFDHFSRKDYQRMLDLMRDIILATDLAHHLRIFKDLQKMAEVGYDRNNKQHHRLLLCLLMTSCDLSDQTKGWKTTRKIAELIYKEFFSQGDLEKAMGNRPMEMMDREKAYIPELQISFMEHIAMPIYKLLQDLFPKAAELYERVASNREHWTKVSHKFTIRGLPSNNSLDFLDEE
Method: Purification and expression of the recombinant pET15b-PDE2A plasmid (catalytic domain, 580–919) was performed following our previously reported method. The plasmid pET15b-PDE2A (catalytic domain, 580–919) was transferred to thawed competent E. coli BL21 cells (CodonPlus, Agilent Technologies, Santa Clara, CA, USA), which were grown in 2XYT medium with 100 μg/mL ampicillin and 20 μg/mL chloramphenicol at 37 °C until OD600 = 0.6–0.8. Then, 0.1 mM isopropylthiogalactoside was added for induction, and protein expression was induced by continuing to grow the cells at 16 °C for 24 h. After that, bacteria were collected by centrifugation and frozen overnight at −20 °C. The bacteria containing the recombinant plasmid of the target protein were subjected to cell disruption and passed through a Ni-NTA agarose affinity column, Q-Sepharose ion-exchange column and other steps. The purity can be 95% or more, and a typical purification batch produces 10–20 mg of PDE2A protein from 1.0 L of cell culture.
Using the appropriate concentration of ^3H-cGMP as the substrate, different compound solutions were added to the test group, DMSO was added to the negative control and blank control groups, and EHNA was added to the positive control group, followed by protein solution (the proteins were all diluted with Assay Buffer); Assay Buffer was added to the blank group. The enzymatic reaction was performed at room temperature (25 °C) for 15 min, and then, 0.2 M ZnSO4 was added to inactivate PDE2 and to stop the reaction. Then, 0.2 N Ba(OH)2 solution was added to precipitate the reaction product, and unreacted ^3H-cGMP remained in the supernatant. After mixing the system, it was centrifuged. The radioactivity of the supernatant was measured with a liquid scintillation counter, and the inhibitory activity of the compound against PDE2 was calculated. The above test was repeated three times (the IC50 test generally used 9 concentrations, and the single-point test was directly diluted with DMSO to the required concentration).

PDE1C (2–634) = target: T2, PDE1C (2–634) (Homo sapiens, UniProt Q14123); assay: PDE selectivity enzymatic assay, PDE1C; conditions: Table 2 selectivity panel
T2 construct: PDE1C (2–634)
T2 sequence (Q14123 2-634 isoform Q14123-2): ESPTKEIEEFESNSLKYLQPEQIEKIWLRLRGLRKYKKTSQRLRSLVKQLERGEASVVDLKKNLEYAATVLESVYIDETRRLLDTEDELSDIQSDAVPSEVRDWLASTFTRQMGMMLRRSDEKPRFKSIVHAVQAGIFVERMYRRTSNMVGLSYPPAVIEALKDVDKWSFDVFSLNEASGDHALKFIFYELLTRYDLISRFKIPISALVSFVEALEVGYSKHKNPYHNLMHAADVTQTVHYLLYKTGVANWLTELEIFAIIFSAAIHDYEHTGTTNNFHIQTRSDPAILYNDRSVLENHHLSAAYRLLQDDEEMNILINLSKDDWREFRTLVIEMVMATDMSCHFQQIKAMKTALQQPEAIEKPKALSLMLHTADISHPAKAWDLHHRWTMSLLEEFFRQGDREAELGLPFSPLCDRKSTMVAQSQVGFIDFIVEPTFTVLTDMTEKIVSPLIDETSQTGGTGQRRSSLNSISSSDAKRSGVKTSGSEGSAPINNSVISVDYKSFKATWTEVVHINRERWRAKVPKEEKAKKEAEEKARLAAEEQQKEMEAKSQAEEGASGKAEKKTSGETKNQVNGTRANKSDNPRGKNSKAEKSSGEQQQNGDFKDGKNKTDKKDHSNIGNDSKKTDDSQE

PDE4D2 (86–413) = target: T3, PDE4D2 (86–413) (Homo sapiens, UniProt Q08499); assay: PDE selectivity enzymatic assay, PDE4D2; conditions: Table 2 selectivity panel
T3 construct: PDE4D2 (86–413)
T3 sequence (Q08499 388-715): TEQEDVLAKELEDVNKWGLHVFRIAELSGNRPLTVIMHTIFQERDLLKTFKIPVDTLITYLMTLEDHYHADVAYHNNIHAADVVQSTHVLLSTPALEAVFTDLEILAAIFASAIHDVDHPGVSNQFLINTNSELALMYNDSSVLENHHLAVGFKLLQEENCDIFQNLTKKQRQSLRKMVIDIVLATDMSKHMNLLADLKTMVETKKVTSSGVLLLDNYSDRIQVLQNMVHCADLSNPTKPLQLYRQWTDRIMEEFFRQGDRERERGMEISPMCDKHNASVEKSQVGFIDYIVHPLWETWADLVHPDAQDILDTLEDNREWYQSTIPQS

inhibition at 0.1 µM [1]	inhibition at 0.5 µM [1]	IC50 [1]	IC50 (PDE1C (2–634))	IC50 (PDE4D2 (86–413))	Structure (SMILES)
75.9%	93.6%	41.5 ± 3.4 nM	8760 ± 668 nM	> 10000 nM	COc1ccc(OCc2ccc(C(F)(F)F)cc2)c(C2C(C#N)=C(N)Oc3[nH]nc(C)c32)c1 (single isomer, unassigned; (+)) [(+)-11h]
	13.4%				COc1ccc(OC(=O)c2ccc(OC(F)(F)F)cc2)c(C2C(C#N)=C(N)Oc3[nH]nc(C)c32)c1 (stereo not shown) [Compound 8a, 2-(6-Amino-5-cyano-3-methyl-1,4-dihydropyrano[2,3-c]pyrazol-4-yl)-4-methoxyphenyl-4-(trifluoromethoxy)benzoate]
15.1%	44.4%	807 ± 15.3 nM			COc1ccc(OCc2ccc(F)cc2)c(C2C(C#N)=C(N)Oc3[nH]nc(C)c32)c1 (stereo not shown) [Compound 11g, 6-Amino-4-(2-((4-fluorobenzyl)oxy)-5-methoxyphenyl)-3-methyl-1,4-dihydropyrano[2,3-c]pyrazole-5-carbonitrile]
		2460 nM			CCCCCC[C@@H]([C@@H](C)O)n1cnc2c(N)ncnc21 (racemic) [EHNA, erythro-9-(2-hydroxy-3-nonyl) adenine, reference compound]
18.2%	57.2%	407 ± 37.7 nM			COc1ccc(C2C(C#N)=C(N)Oc3[nH]nc(C)c32)cc1OCc1ccc(Cl)cc1 (stereo not shown) [4a (LZ77), 6-Amino-4-(3-((4-chlorobenzyl)oxy)-4-methoxyphenyl)-3-methyl-1,4-dihydropyrano[2,3-c]pyrazole-5-carbonitrile]
	9.6%				COc1ccc(OCc2ccc(C(F)(F)F)cc2)c(C2C(C#N)=C(N(C)C)Oc3[nH]nc(C)c32)c1 (stereo not shown) [Compound 16, 6-(Dimethylamino)-4-(5-methoxy-2-((4-(trifluoromethyl)benzyl)oxy)phenyl)-3-methyl-1,4-dihydropyrano[2,3-c]pyrazole-5-carbonitrile]
22.7%	60.5%	445.3 ± 3.4 nM			COc1ccc(OCc2ccc(C(F)(F)F)cc2)c(C2C(C#N)=C(N)Oc3[nH]ncc32)c1 (stereo not shown) [Compound 11r, 6-Amino-4-(5-methoxy-2-((4-(trifluoromethyl)benzyl)oxy)phenyl)-1,4-dihydropyrano[2,3-c]pyrazole-5-carbonitrile]
	6.6%				Cc1n[nH]c2c1C(c1cc(OC(F)F)ccc1OCc1ccc(C(F)(F)F)cc1)C(C#N)=C(N)O2 (stereo not shown) [Compound 11q, 6-Amino-4-(5-(difluoromethoxy)-2-((4-(trifluoromethyl)benzyl)oxy)phenyl)-3-methyl-1,4-dihydropyrano[2,3-c]pyrazole-5-carbonitrile]
	39.1%				COc1ccc(OC(=O)c2ccc(C(F)(F)F)cc2)c(C2C(C#N)=C(N)Oc3[nH]nc(C)c32)c1 (stereo not shown) [Compound 8b, 2-(6-Amino-5-cyano-3-methyl-1,4-dihydropyrano[2,3-c]pyrazol-4-yl)-4-methoxyphenyl-4-(trifluoromethyl)benzoate]
17.5%	48%	458 ± 16.2 nM			COc1ccc(COc2ccc(OC)cc2C2C(C#N)=C(N)Oc3[nH]nc(C)c32)cc1 (stereo not shown) [Compound 11e, 6-Amino-4-(5-methoxy-2-((4-methoxybenzyl)oxy)phenyl)-3-methyl-1,4-dihydropyrano[2,3-c]pyrazole-5-carbonitrile]
